Values of other authors, collected in patent US6964965B2, “Substituted pyrazine derivatives” (Pharmacia & Upjohn, priority 2002, dated 2005).

Columns and labels:
[1] = test system: human epidermal keratinocyte cells; conditions: cultured human epidermal keratinocyte cells
[2] = test system: CRF; conditions: for effect on the “anxiogenic” effects / actions of CRF in the conflict test: conflict test (operant conflict test)

CCN(c1nc(C)cc(N2CC=C(c3cccc(F)c3)CC2)n1)c1ccc(C(C)C)cc1SC [2-[N-(2-methylthio-4-isopropylphenyl)-N-ethylamino]-4-[4-(3-fluorophenyl)-1,2,3,6-tetrahydropyridine-1-yl]-6-methylpyrimidine]
keratinocyte cell proliferation promoting effect [1]: showed keratinocyte cell proliferation promoting effect

CNC(=O)c1cc2c(cn1)[nH]c1ccccc12 [FG 7142]
effect on the “anxiogenic” effects / actions of CRF in the conflict test [2]: enhanced the actions of CRF

CCOC(=O)c1ncn2c1CN(C)C(=O)c1cc(F)ccc1-2 [Ro 15-1788]
behavioral activity of the substance alone in the operant conflict test ([2]; alone, without CRF): without behavioral activity alone
effect on the “anxiogenic” effects / actions of CRF in the conflict test [2]: reversed the effects of CRF in a dose-dependent manner
